Species on record: Rattus norvegicus
Assay: DrugMatrix - Regimen: Daily Repeat
Format: toxicity, organism-based, Sprague-Dawley
Design: regimen Daily Repeat, gender Male, age 6-8 weeks
Settings: in vivo, po, 500 mg/kg, route oral GAVAGE, dose level High, vehicle .5 % CMC; for ABSOLUTE BASOPHIL / ABSOLUTE EOSINOPHIL / ABSOLUTE LYMPHOCYTE / ABSOLUTE MONOCYTE / ABSOLUTE SEGMENTED NEUTROPHIL / BASOPHIL / EOSINOPHIL / ERYTHROCYTE COUNT / HEMATOCRIT / HEMOGLOBIN / LEUKOCYTE COUNT / LYMPHOCYTE / MEAN CORPUSCULAR HEMOGLOBIN / MEAN CORPUSCULAR HEMOGLOBIN CONCENTRATION / MEAN CORPUSCULAR VOLUME / MONOCYTE / NEUTROPHIL / NUCLEATED RED BLOOD CELLS / PLATELET COUNT: tissue Blood; for ALANINE AMINOTRANSFERASE / ALBUMIN / ALKALINE PHOSPHATASE / ASPARTATE AMINOTRANSFERASE / BLOOD UREA NITROGEN / CARBON DIOXIDE / CHLORIDE / CHOLESTEROL / CREATININE / GLUCOSE / LACTATE DEHYDROGENASE / LIPASE / PHOSPHORUS / POTASSIUM / SODIUM / TOTAL BILIRUBIN / TOTAL PROTEIN / URIC ACID: tissue Plasma

For Clc1ccccc1 [CHLOROBENZENE], the “ABSOLUTE BASOPHIL” value (120 h, time 5 day) was 0 CELLS/uL, the “ABSOLUTE EOSINOPHIL” value (120 h, time 5 day) was 83.67 CELLS/uL and the “ABSOLUTE LYMPHOCYTE” value (120 h, time 5 day) was 5790.33 CELLS/uL. The “ABSOLUTE MONOCYTE” value (120 h, time 5 day) was 83 CELLS/uL, the “ABSOLUTE SEGMENTED NEUTROPHIL” value (120 h, time 5 day) was 376.33 CELLS/uL and the BASOPHIL (120 h, time 5 day) was 0%. For the same compound, the EOSINOPHIL (120 h, time 5 day) was 1.33%, the “ERYTHROCYTE COUNT” value (120 h, time 5 day) was 6.34 x10E6/uL and the HEMATOCRIT (120 h, time 5 day) was 37.73%. For the same compound, the HEMOGLOBIN (120 h, time 5 day) was 13.57 G/DL, the “LEUKOCYTE COUNT” value (120 h, time 5 day) was 6.33 x10E3/uL and the LYMPHOCYTE (120 h, time 5 day) was 91.33%. For the same compound, the “MEAN CORPUSCULAR HEMOGLOBIN” value (120 h, time 5 day) was 21.37 pg, the “MEAN CORPUSCULAR HEMOGLOBIN CONCENTRATION” value (120 h, time 5 day) was 35.9 G/DL and the “MEAN CORPUSCULAR VOLUME” value (120 h, time 5 day) was 59.6 fL. For the same compound, the MONOCYTE (120 h, time 5 day) was 1.33%, the NEUTROPHIL (120 h, time 5 day) was 6% and the “NUCLEATED RED BLOOD CELLS” value (120 h, time 5 day) was 0 /100WBC. The “PLATELET COUNT” value (120 h, time 5 day) was 998.67 x10E3/uL, the “ALANINE AMINOTRANSFERASE” value (120 h, time 5 day) was 58 u/L and the ALBUMIN (120 h, time 5 day) was 4.13 G/DL. The “ALKALINE PHOSPHATASE” value (120 h, time 5 day) was 325 u/L, the “ASPARTATE AMINOTRANSFERASE” value (120 h, time 5 day) was 91 u/L and the “BLOOD UREA NITROGEN” value (120 h, time 5 day) was 16 mg/dL. The “CARBON DIOXIDE” value (120 h, time 5 day) was 31.67 mmol/L, the CHLORIDE (120 h, time 5 day) was 102.67 MEQ/L and the CHOLESTEROL (120 h, time 5 day) was 68 mg/dL. The CREATININE (120 h, time 5 day) was 0.19 mg/dL, the GLUCOSE (120 h, time 5 day) was 160.67 mg/dL and the “LACTATE DEHYDROGENASE” value (120 h, time 5 day) was 181.33 u/L. It also gave an LIPASE (120 h, time 5 day) of 9.33 u/L, a PHOSPHORUS (120 h, time 5 day) of 11.9 mg/dL and a POTASSIUM (120 h, time 5 day) of 5.74 MEQ/L. The SODIUM (120 h, time 5 day) was 150.1 MEQ/L, the “TOTAL BILIRUBIN” value (120 h, time 5 day) was 0.2 mg/dL and the “TOTAL PROTEIN” value (120 h, time 5 day) was 6.07 G/DL. For the same compound, the “URIC ACID” value (120 h, time 5 day) was 1.8 mg/dL, the “ABSOLUTE BASOPHIL” value ([…], time 14 day) was 0 CELLS/uL and the “ABSOLUTE EOSINOPHIL” value ([…], time 14 day) was 209.6 CELLS/uL. The “ABSOLUTE LYMPHOCYTE” value ([…], time 14 day) was 11694.6 CELLS/uL, the “ABSOLUTE MONOCYTE” value ([…], time 14 day) was 390 CELLS/uL and the “ABSOLUTE SEGMENTED NEUTROPHIL” value ([…], time 14 day) was 1365.8 CELLS/uL. The BASOPHIL ([…], time 14 day) was 0%, the EOSINOPHIL ([…], time 14 day) was 1.4% and the “ERYTHROCYTE COUNT” value ([…], time 14 day) was 6.07 x10E6/uL. The HEMATOCRIT ([…], time 14 day) was 35.18%, the HEMOGLOBIN ([…], time 14 day) was 13 G/DL and the “LEUKOCYTE COUNT” value ([…], time 14 day) was 13.86 x10E3/uL. The LYMPHOCYTE ([…], time 14 day) was 85.2%, the “MEAN CORPUSCULAR HEMOGLOBIN” value ([…], time 14 day) was 21.48 pg and the “MEAN CORPUSCULAR HEMOGLOBIN CONCENTRATION” value ([…], time 14 day) was 37 G/DL. For the same compound, the “MEAN CORPUSCULAR VOLUME” value ([…], time 14 day) was 58.06 fL, the MONOCYTE ([…], time 14 day) was 3% and the NEUTROPHIL ([…], time 14 day) was 10.4%. The “NUCLEATED RED BLOOD CELLS” value ([…], time 14 day) was 0 /100WBC, the “PLATELET COUNT” value ([…], time 14 day) was 916.8 x10E3/uL and the “ALANINE AMINOTRANSFERASE” value ([…], time 14 day) was 59 u/L. For the same compound, the ALBUMIN ([…], time 14 day) was 4.22 G/DL, the “ALKALINE PHOSPHATASE” value ([…], time 14 day) was 464.4 u/L and the “ASPARTATE AMINOTRANSFERASE” value ([…], time 14 day) was 88.8 u/L. For the same compound, the “BLOOD UREA NITROGEN” value ([…], time 14 day) was 16 mg/dL, the “CARBON DIOXIDE” value ([…], time 14 day) was 28.4 mmol/L and the CHLORIDE ([…], time 14 day) was 102.2 MEQ/L. The CHOLESTEROL ([…], time 14 day) was 70.2 mg/dL, the CREATININE ([…], time 14 day) was 0.16 mg/dL and the GLUCOSE ([…], time 14 day) was 130.8 mg/dL. For the same compound, the “LACTATE DEHYDROGENASE” value ([…], time 14 day) was 283.8 u/L, the LIPASE ([…], time 14 day) was 10.2 u/L and the PHOSPHORUS ([…], time 14 day) was 11.26 mg/dL. For the same compound, the POTASSIUM ([…], time 14 day) was 6.64 MEQ/L, the SODIUM ([…], time 14 day) was 147.56 MEQ/L and the “TOTAL BILIRUBIN” value ([…], time 14 day) was 0.28 mg/dL. The “TOTAL PROTEIN” value ([…], time 14 day) was 6.16 G/DL and the “URIC ACID” value ([…], time 14 day) was 1.56 mg/dL.
